Test results as given in ChEMBL document CHEMBL1201862, “PubChem BioAssay data set” (2004).
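Cells were grown in 96-well plates and exposed to each compound for 48 hours at five concentrations; endpoints were interpolated linearly between bracketing concentrations, or set to the highest concentration if not reached. The concentration for 50% growth inhibition is given as GI50.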 The source made the active and inactive calls. Cut-off read from the data, not from the text of the source: active = GI50 up to about 1.1 µM and inactive = higher.

Columns and labels:
Test in all cases: DTP human tumour cell line panel, 48 h
[1] = test system: K562
[2] = test system: EKVX
[3] = test system: A549
[4] = test system: RPMI-8226
[5] = test system: SK-MEL-2
[6] = test system: HCT-15
[7] = test system: COLO 205
[8] = test system: OVCAR-4
[9] = test system: HL-60
[10] = test system: SW-620
[11] = test system: SK-MEL-5
[12] = test system: SF-539
[13] = test system: T47D
[14] = test system: HT-29
[15] = test system: A498
[16] = test system: SR
[17] = test system: SF-268
[18] = test system: SNB-75
[19] = test system: DU-145
[20] = test system: OVCAR-5

Row | SMILES | GI50 [1] | GI50 [2] | GI50 [3] | GI50 [4] | GI50 [5] | GI50 [6] | GI50 [7] | GI50 [8] | GI50 [9] | GI50 [10] | GI50 [11] | GI50 [12] | GI50 [13] | GI50 [14] | GI50 [15] | GI50 [16] | GI50 [17] | GI50 [18] | GI50 [19] | GI50 [20]
1 | C=C1C(=O)OC2C1CCC(C)C1(O)C=CC(=O)C21C (stereo not given) | 4.45 µM (inactive) | > 10 µM (inactive) | > 10 µM (inactive) | 5.43 µM (inactive) | > 10 µM (inactive) | 4.5 µM | > 10 µM (inactive) | 7.6 µM (inactive) | 2.39 µM (inactive) | 3.44 µM (inactive) | > 10 µM (inactive) | > 10 µM (inactive) | 6.31 µM (inactive) | > 10 µM (inactive) | 5.46 µM (inactive) | 3.13 µM (inactive) | > 10 µM (inactive) | 6.65 µM (inactive) |  | 
2 | CC1(CCOCc2ccccc2)NC(=O)NC1=O (stereo not given) | > 100 µM (inactive) | > 100 µM (inactive) | > 100 µM (inactive) |  | > 100 µM (inactive) | > 100 µM |  | > 100 µM (inactive) |  | > 100 µM (inactive) | > 100 µM (inactive) |  |  | > 100 µM (inactive) | > 100 µM (inactive) | > 100 µM (inactive) | > 100 µM (inactive) |  | > 100 µM (inactive) | > 100 µM (inactive)
3 | COc1cc(/C=C2/C(=O)N(C(=O)OCc3ccccc3)C(Cc3cc(OC)c(OC)c(C)c3OC)C(=O)N2Cc2ccccc2)c(OC)c(C)c1OC (stereo not given) | 39 µM (inactive) | > 100 µM (inactive) | > 100 µM (inactive) | 20.9 µM (inactive) | 87.3 µM (inactive) |  | > 100 µM (inactive) | > 100 µM (inactive) | 7.52 µM (inactive) | > 100 µM (inactive) | 19.4 µM (inactive) | > 100 µM (inactive) |  | > 100 µM (inactive) | 88.7 µM (inactive) | 41.1 µM (inactive) | > 100 µM (inactive) | > 100 µM (inactive) |  | > 100 µM (inactive)
4 | COc1ccc(C(=O)O/N=C2/CCC/C2=C\c2ccccc2)cc1 | > 100 µM (inactive) | > 100 µM (inactive) | > 100 µM (inactive) | > 100 µM (inactive) | > 100 µM (inactive) | > 100 µM | > 100 µM (inactive) | > 66.1 µM (inactive) | > 85.9 µM (inactive) | > 100 µM (inactive) | > 100 µM (inactive) | > 59.3 µM (inactive) |  | > 100 µM (inactive) | > 100 µM (inactive) | > 100 µM (inactive) | > 81.8 µM (inactive) | > 43.3 µM (inactive) |  | > 100 µM (inactive)
5 | CCOC(=O)/C(=C\c1ccc(O)c(OC)c1)C(=O)c1ccccc1 | 9.59 µM (inactive) | > 38.9 µM (inactive) | 18.2 µM (inactive) | 9.77 µM (inactive) | 12.5 µM (inactive) | 8.75 µM | 36.1 µM (inactive) | 13.9 µM (inactive) | 10.4 µM (inactive) | 13.1 µM (inactive) | 13.3 µM (inactive) | 13.8 µM (inactive) |  | 24.7 µM (inactive) | 17 µM (inactive) | 11 µM (inactive) | 9.62 µM (inactive) | 20.2 µM (inactive) | 23.1 µM (inactive) | 26.8 µM (inactive)
6 | C[C@@]12c3c4ccc(C=O)c3Oc3ccc(C=O)c(c31)Oc1c(C=O)ccc(c12)O4 | > 100 µM (inactive) | > 100 µM (inactive) | > 100 µM (inactive) | > 100 µM (inactive) | > 100 µM (inactive) | > 100 µM | > 100 µM (inactive) | > 100 µM (inactive) |  | > 100 µM (inactive) | > 100 µM (inactive) | > 100 µM (inactive) | > 100 µM (inactive) | > 100 µM (inactive) | 31.5 µM (inactive) | 2.96 µM (inactive) | > 100 µM (inactive) | > 100 µM (inactive) |  | > 100 µM (inactive)
7 | CC(=O)c1c(N=[N+]=[N-])c2cccc3c2n(c1=O)CCC3 | 21.8 µM (inactive) | 21.3 µM (inactive) | 29 µM (inactive) | 25.9 µM (inactive) | 21.7 µM (inactive) | 19.7 µM | 21.4 µM (inactive) | 21 µM (inactive) |  | 16 µM (inactive) | 14.7 µM (inactive) | 27.9 µM (inactive) | 22.6 µM (inactive) | 16.4 µM (inactive) | 21.3 µM (inactive) | 36.7 µM (inactive) | 18.6 µM (inactive) | 24.8 µM (inactive) |  | 15.2 µM (inactive)
8 | COc1cc(Cc2nccc3cc(OC)c(OC)cc23)c(/N=N/N(C)C)cc1OC | 4.28 µM (inactive) | 14.6 µM (inactive) | 23.4 µM (inactive) | 4.73 µM (inactive) | 30.6 µM (inactive) | 5 µM | 14.4 µM (inactive) | 20.5 µM (inactive) |  | 7.94 µM (inactive) | 12.1 µM (inactive) |  | 5.36 µM (inactive) | 10.4 µM (inactive) |  |  | 22.1 µM (inactive) | 34 µM (inactive) | 17.5 µM (inactive) | 20.5 µM (inactive)
9 | O=C1O/C(=C(/c2ccc(Cl)cc2)c2nc3ccccc3[nH]2)C(O)=C1c1ccc(Cl)cc1 | 1.85 µM (inactive) | 1.46 µM (inactive) | 2.4 µM (inactive) | 2.28 µM (inactive) |  |  | 1.59 µM (inactive) | 2.4 µM (inactive) | 2 µM (inactive) | 3.48 µM (inactive) |  | 2.65 µM (inactive) |  | 2.7 µM (inactive) | 2.47 µM (inactive) | 1.92 µM (inactive) | 2.46 µM (inactive) | 2.69 µM (inactive) |  | 2.43 µM (inactive)
10 | CC(NC(=O)c1c(O)[nH]c(=S)[nH]c1=O)c1ccc([N+](=O)[O-])cc1 (stereo not given) | 43.7 µM (inactive) | > 100 µM (inactive) | > 100 µM (inactive) | > 100 µM (inactive) | 32.5 µM (inactive) | > 100 µM | > 100 µM (inactive) | 49 µM (inactive) | > 100 µM (inactive) | > 100 µM (inactive) | > 100 µM (inactive) | 82.2 µM (inactive) | 37.2 µM (inactive) | > 100 µM (inactive) |  |  | 52.8 µM (inactive) | 17.9 µM (inactive) | 75.7 µM (inactive) | > 100 µM (inactive)
11 | CCOc1cc2c(cc1O)C(O)C[C@@H]1[C@@H]2CC[C@]2(C)[C@@H](O)CC[C@@H]12 (stereo not given in full) | 0.0991 µM (active) | 1.32 µM (inactive) | 0.231 µM (active) | 0.467 µM (active) | > 100 µM (inactive) | 0.218 µM | 19.3 µM (inactive) | > 100 µM (inactive) | 0.0822 µM (active) | 0.317 µM (active) | 0.236 µM (active) | 0.28 µM (active) |  | 4.44 µM (inactive) | 0.0501 µM (active) | 4.94 µM (inactive) | 4.16 µM (inactive) | 0.619 µM (active) | 0.59 µM (active) | 52.2 µM (inactive)
12 | CSc1c(C#N)c(N)n2c1C(=O)N(c1ccccc1)C2=S | > 100 µM (inactive) | 8.2 µM (inactive) | > 100 µM (inactive) |  |  | > 100 µM | 30 µM (inactive) | 26.5 µM (inactive) | > 100 µM (inactive) | 85.1 µM (inactive) | > 100 µM (inactive) | 92.7 µM (inactive) | 52.6 µM (inactive) | 90.2 µM (inactive) | 23 µM (inactive) |  | 88.1 µM (inactive) | 53.3 µM (inactive) | > 100 µM (inactive) | > 100 µM (inactive)
13 | O=S1(=O)c2ccccc2N(c2ccccc2)c2nnnn21 | 29.4 µM (inactive) | 33 µM (inactive) | 33.4 µM (inactive) |  | 40.4 µM (inactive) | 12.6 µM | 22.5 µM (inactive) | 16.7 µM (inactive) | 11.4 µM (inactive) | 22.3 µM (inactive) | 34.4 µM (inactive) | 18.7 µM (inactive) | 31.8 µM (inactive) | 20.6 µM (inactive) | 23.6 µM (inactive) |  | 34.7 µM (inactive) |  | 34.5 µM (inactive) | 33.3 µM (inactive)
14 | CCOC(=O)Nc1ccc(S(=O)(=O)I)cc1.CCOC(=O)Nc1ccc(S(=O)(=O)I)cc1.CNC(=O)N=O.NC(=O)OCCCl | 40 µM (inactive) |  | > 100 µM (inactive) |  | 43.6 µM (inactive) | 70.8 µM | > 100 µM (inactive) |  | 45.3 µM (inactive) | 61.8 µM (inactive) | > 100 µM (inactive) | > 100 µM (inactive) |  | 69 µM (inactive) | > 100 µM (inactive) | > 100 µM (inactive) | > 100 µM (inactive) | 21.9 µM (inactive) |  | 
15 | C/C(C=O)=C1\C(O)C[C@]1(C)C1CC(C)(C)CC1O (stereo not given in full) | 54.6 µM (inactive) | > 100 µM (inactive) | > 100 µM (inactive) | 42.3 µM (inactive) | > 100 µM (inactive) |  | > 100 µM (inactive) | 35.7 µM (inactive) | 91 µM (inactive) | > 100 µM (inactive) | > 100 µM (inactive) | 49.1 µM (inactive) |  | > 100 µM (inactive) | > 100 µM (inactive) | 47 µM (inactive) | > 100 µM (inactive) |  |  | > 100 µM (inactive)
16 | CN(C)c1ccc(N=O)c(O)c1.CN(C)c1ccc(N=O)c(O)c1.[SiH4] | 16.3 µM (inactive) | 15.3 µM (inactive) | 12.4 µM (inactive) | 31.6 µM (inactive) |  |  | 2.96 µM (inactive) | 12.7 µM (inactive) | 4.41 µM (inactive) | 10.2 µM (inactive) | 11.1 µM (inactive) | 14.2 µM (inactive) |  | 6.67 µM (inactive) | 21.3 µM (inactive) | 11 µM (inactive) | 6.98 µM (inactive) | 12.7 µM (inactive) |  | 24 µM (inactive)
